{"source": "patent US20220331267A1", "about": "“METHODS AND COMPOSITIONS FOR TREATMENT OF DEMYELINATING DISORDERS” (Rush University Medical Center, priority 2019, published 2022)", "key": {"GFPflpparβ": {"target": "T1, GFPflpparβ (Mus musculus, UniProt P35396)", "T1 construct": "host or cells: Pparb-null mouse primary OPCs (lentiviral transduction)", "T1 sequence (P35396 1-440)": "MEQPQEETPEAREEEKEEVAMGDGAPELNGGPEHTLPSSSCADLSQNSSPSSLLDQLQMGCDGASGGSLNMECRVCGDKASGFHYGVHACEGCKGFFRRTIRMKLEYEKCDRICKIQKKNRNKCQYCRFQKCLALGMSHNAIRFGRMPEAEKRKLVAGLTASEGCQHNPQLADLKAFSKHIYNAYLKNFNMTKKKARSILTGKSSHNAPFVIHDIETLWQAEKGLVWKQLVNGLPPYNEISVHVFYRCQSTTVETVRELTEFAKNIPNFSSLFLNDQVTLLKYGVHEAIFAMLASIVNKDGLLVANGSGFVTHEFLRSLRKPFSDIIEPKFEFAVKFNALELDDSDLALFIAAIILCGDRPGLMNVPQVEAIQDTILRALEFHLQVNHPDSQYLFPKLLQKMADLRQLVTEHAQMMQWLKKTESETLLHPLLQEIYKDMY", "assay": "GFP-affinity purification and GCMS of Pparb-null OPCs transduced with GFPflpparβ", "format": "binding", "excerpt": "Therefore, next, we wanted to confirm these interactions in vitro in a cell-bound system. To test that, Pparb-null mouse primary OPCs were isolated from P1 murine neonates, infected with viral particles of GFP, GFPflpparb, GFPV304Mpparb, GFPH412Lpparb constructs for 48 hrs. After that, OPCs were homogenized, passed through the GFP-affinity column, eluted, fractionated with chloroform-methanol, and finally analyzed with GCMS to quantify these ligands. […] Throughout these analyses, we used dodecane as an internal standard.\nSample preparation: After treatment, mouse primary OPCs were homogenized in ice-cold nondetergent hypotonic buffer [10 mM HEPES (pH 7.9), 1.5 mM MgCl2, 10 mM KCl, 100 mM DTT, protease and phosphatase inhibitor cocktail]. After 10 min of additional incubation in the hypotonic buffer, the homogenate was centrifuged at 8,000 g at 4° C. for 10 min. […] The organic phase was collected, evaporated in the speedvac, reconstituted with 30 μL chloroform, and finally analyzed with GCMS. […] After that, the eluate was collected from the column with 5M NaCl solution, concentrated with PD-10 desalting column and analyzed for GCMS."}, "GFP-PPARα LBD": {"target": "T2, GFP-PPARα LBD (Homo sapiens, UniProt Q07869)", "T2 construct": "incubated with recombinant GFP-PPARα LBD and GFP-PPARβ LBD proteins", "T2 sequence (Q07869 239-466 limits assumed)": "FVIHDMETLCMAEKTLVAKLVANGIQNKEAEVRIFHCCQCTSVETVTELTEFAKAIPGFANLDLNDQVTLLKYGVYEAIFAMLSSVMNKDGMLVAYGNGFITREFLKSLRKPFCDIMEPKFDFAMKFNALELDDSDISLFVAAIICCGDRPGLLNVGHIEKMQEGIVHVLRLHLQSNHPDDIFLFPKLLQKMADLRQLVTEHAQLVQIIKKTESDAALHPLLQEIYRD", "assay": "GFP-affinity purification of cerebellar lysate with GFP-PPARα LBD, then EI-GCMS", "format": "binding", "details": "PPARα pulled-down cerebellar lysate", "excerpt": "Identification of unique cerebellar ligands of PPARβ: PPARβ regulates the expression of myelin genes in vitro in cultured oligodendrocytes (19). However, it is not known if PPARβ regulates the expression of these genes in cerebellum, one of the heavily myelinated regions of the brain. To test the expression of myelin proteins, first we performed dual immunofluorescence analyses of myelin marker MBP together with PPARβ in the cerebellar tissue of wild-type (n=3), Pparb-null (n=3) and Ppara-null (n=3) mice. […] Moreover, DAB immunostaining of MBP and immunoblot analyses of other myelin genes including PLP and MOG have corroborated that PPARβ indeed is involved in the expression of myelin genes in cerebellum. […] To test that, we performed a GFP-based affinity purification procedure (25,29) in which cerebellar lysate of wild-type cerebellum was incubated with recombinant GFP-PPARα LBD and GFP-PPARβ LBD proteins, then passed through GFP column, eluted, fractionated with chloroform-methanol procedure, and finally analyzed for small molecules in the chloroform fraction with electron ionization gas chromatography (EI-GCMS) method as described elsewhere (29). […] Accordingly, we detected two matching bands of both GFP-PPARαLBD and GFP-PPARβLBD, both having mol. wt. of 64 kDa, negating the possibility of unequal loading of sample in MS column. […]"}, "mouse primary OPCs [1]": {"tested_on": "mouse primary OPCs", "assay": "Myelination of OPCs on polycaprolactone nanofiber matrix (MBP staining)", "format": "cell-based", "details": "1 μM DBB, 0.5 μM DBP, 0.5 μM MePA", "description": "(§1) FIG. 1A-1T. The role of DBB, DBP and MePA in the differentiation of OPC into oligodendrocytes and myelination. […] Briefly, mouse primary OPCs were treated with different concentrations of molecules for 1 hr, lysed and measured for DNA probe binding activity of PPARβ. […] Benzene was included as negative control. **p<0.01 vs. control for PLP, MOG, MBP, and CNPase. Results are mean±SD of three independent experiments. (FIG. 1G) Immunoblot followed by (FIG. 1H) relative densitometric analyses of PLP and MBP in mouse primary OPCs treated with increasing concentrations of DBB for 18 hrs. Band intensity was measured with image J software and then normalized with respective actin band. *p<0.05 (=0.041) vs. PLP control and *p<0.05 (=0.026) vs. MBP control. […] (N) Mean fluorescence intensity (MFI) of MBP was measured from total 15 cells per group with three cells from 5 different images per group. […] (FIG. 1Q) Mean fluorescence intensity (MFI) of MBP was measured from total 15 cells per group with three cells from 5 different images per group. […] (FIG. 1T) Numbers of MBP-ir cells of different treatment groups were counted per sq.mm of nanofiber matrix and presented as a histogram. […]\nThe essential role of PPARβ in DBB-, DBP- and MePa-mediated differentiation of OPCs to oligodendrocytes and myelination. […] After that, PPRE-luciferase activity was assessed. […]"}, "mouse primary OPCs [2]": {"tested_on": "mouse primary OPCs", "assay": "Double immunofluorescence (NG2/MBP, A2B5/PLP): differentiation of OPCs to oligodendrocytes", "format": "cell-based", "details": "1 μM DBB, 0.5 μM DBP, 0.5 μM MePA, 24 hrs", "description": "as §1\nDBB, DBP and MePA stimulate the differentiation of OPC to oligodendrocytes and promote myelination. […] After that, cells were lysed and assessed for PPRE-luciferase activity. […]"}, "GFP-PPARβ LBD": {"target": "T3, GFP-PPARβ LBD (Homo sapiens, UniProt Q03181)", "T3 construct": "incubated with recombinant GFP-PPARα LBD and GFP-PPARβ LBD proteins", "T3 sequence (Q03181 211-439 limits assumed)": "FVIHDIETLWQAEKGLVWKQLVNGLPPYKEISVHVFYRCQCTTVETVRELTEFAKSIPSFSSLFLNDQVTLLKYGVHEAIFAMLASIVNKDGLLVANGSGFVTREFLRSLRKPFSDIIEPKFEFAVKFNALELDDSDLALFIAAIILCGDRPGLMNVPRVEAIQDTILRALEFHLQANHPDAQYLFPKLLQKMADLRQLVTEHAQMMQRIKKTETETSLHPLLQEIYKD", "assay": "GFP-affinity purification of cerebellar lysate with GFP-PPARβ LBD, then EI-GCMS", "format": "binding", "details": "PPARβ pulled-down cerebellar lysate", "method": "To test that, we performed a GFP-based affinity purification procedure (25,29) in which cerebellar lysate of wild-type cerebellum was incubated with recombinant GFP-PPARα LBD and GFP-PPARβ LBD proteins, then passed through GFP column, eluted, fractionated with chloroform-methanol procedure, and finally analyzed for small molecules in the chloroform fraction with electron ionization gas chromatography (EI-GCMS) method as described elsewhere (29). […] A part of the eluted fraction was electrophoresed and stained with Coomassie blue to nullify the loading error of GFP-PPARαLBD and GFP-PPARβ LBD used for affinity purification.\nGCMS analyses: Ligand detection: A JEOL GCMate II (JEOL USA, Peabody Mass.) mass spectrometer was used in ligand detection experiments. The gas chromatograph (GC) was an Agilent 6890Plus (Wilmington Del.) equipped with a G1513A auto-injector with 100 vial sample tray connected to a G1512A controller. The gas chromatography column was a fused silica capillary column with a nonpolar 5% phenyl 95% dimethylpolysiloxane phase (Agilent HP-5 ms), 30 meters long, 0.25 mm internal diameter, 0.25 μm film thickness. The carrier gas was Helium (99.9995% Research Grade) run through a STG triple filter (Restek Corp.) at a constant flow rate 1.1 mL/min. […]"}, "PPARβ LBD": {"target": "T4, PPARβ LBD (Homo sapiens, UniProt Q03181)", "T4 sequence (Q03181 211-439 limits assumed)": "T3 sequence (Q03181 211-439 limits assumed)", "assay": "TR-FRET (Lanthascreen PPAR-β coactivator assay)", "method": "The shift of each melting curve was calculated by subtracting the melting temperature (Tm) of PPARβ protein+ligand with Tm of PPARβ protein alone. Any shift (ΔTm) with more than 2° C. would be considered as significant.\nTR-FRET analysis: TR-FRET assay was performed using Lanthascreen TR-FRET PPAR-β coactivator assay kit (Cat #PV4685). […] The entire reaction was set up in corning 96 well-plate followed by incubation in a dark place for 30 mins, and then analyzed “Victor X5” machine equipped with dichroic mirror. The excitation wavelength and emission wavelength were set at 340 nm and 540 nm wavelength respectively."}, "[3]": {"details": "adjusted to internal standard peak"}}, "data": [{"smiles": "CCCCCCCCCCCCCCCC(=O)OC", "note": "[MePA, Methyl palmitate]", "values": [{"measurement": "Adjusted Peak Area", "setting": "GFPflpparβ; ligand peak area divided by dodecane peak", "value": 0.0108}, {"measurement": "RA", "setting": "GFPflpparβ; relative abundance", "value": 1}, {"measurement": "% RA", "setting": "GFP-PPARα LBD", "value": 0, "unit": "%"}, {"measurement": "Relative abundance", "setting": "GFP-PPARα LBD; [3]", "value": 0}, {"measurement": "MBP-ir cell bodies per sq.mm of nanofiber matrix (maturation of oligodendrocytes)", "setting": "mouse primary OPCs [1]", "value": "stimulated the maturation of oligodendrocytes"}, {"measurement": "myelin formation on nanofibers", "setting": "mouse primary OPCs [1]; 24 hrs", "value": "promote myelin formation"}, {"measurement": "differentiation of OPCs into oligodendrocytes", "setting": "mouse primary OPCs [2]", "value": "stimulate the differentiation of OPCs into oligodendrocytes"}, {"measurement": "% RA", "setting": "GFP-PPARβ LBD", "value": 40.678, "unit": "%"}, {"measurement": "Relative abundance", "setting": "GFP-PPARβ LBD; [3]", "value": 0.4068}, {"measurement": "EC50", "setting": "PPARβ LBD", "value": 72, "unit": "nM"}]}]}
